# From US20150125457A1, “BONE REPAIR PROMOTER” (DAIICHI SANKYO COMPANY, LIMITED, priority 2012, published 2015)
# Tested on: type X collagen gene
# Assay: Rat closed femur fracture model, cartilage-related marker gene expression (real-time PCR)
# Format: in vivo
# Details: 7 days after fracture
# Description: In accordance with the method of Example 2, a rat closed fracture model was prepared. For an animal in a Sham group, a pin only was inserted into the femur, and a bone fracture was not prepared. An administration solution of CNP derivative A was prepared so as to be a dosage corresponding to 0.5 mg/kg/day, and then loaded into an osmotic pump (model 2001, Alzet). The osmotic pump was buried under the skin of the neck back of the animal, and continuous subcutaneous administration was performed for one week. Vehicle was continuously subcutaneously administered to the control group. 7 days after the preparation of the bone fracture, the animal was subjected to isoflurane inhalation anesthesia, retained in a supine position to open the abdomen, and then bled for the euthanasia. The left femur was resected, and immersed into RNAlater (Life Technologies Corporation). The diaphysis or part of the callus was cut out from the femur that had been refrigerated in RNAlater for one day or more. To the cut-out diaphysis or part of the callus, QIAzol (QIAGEN) was added, and the resultant was crushed with tungsten beads. The total RNA was extracted by an RNeasy Mini Kit (QIAGEN), and 1st strand cDNA was synthesized by a SuperScript VILO cDNA Synthesis Kit (Life Technologies Corporation). The gene expression level was measured by a real-time PCR method using TaqMan Gene Expression Master Mix (Life Technologies Corporation). The measured value was standardized by the gene expression level of ubiquitin-C. The standardization was performed for 12 cases in each group.
# In accordance with the method of Example 2, a rat closed fracture model was prepared. An administration solution was prepared so as to be a dosage corresponding to 0.5 mg/kg/day by using various NPR-B agonists (CNP derivative A, hCNP-53 (SEQ ID NO: 2), CNP derivative C (CNP-36, amino acid Nos. 18 to 53 of SEQ ID NO: 2), and CNP derivative D (Pro-Gly-CNP37, SEQ ID NO: 15)), and then loaded into an osmotic pump (Model 2001, Alzet). The osmotic pump was buried under the skin of the neck back of the animal retained in a supine position, and continuous subcutaneous administration was performed for one week. Vehicle was administered to the control group. 7 days after the preparation of the bone fracture, the animal was subjected to isoflurane inhalation anesthesia, retained in a supine position to open the abdomen, and then subjected to blood collection from the abdominal aorta. EDTA Na was added to the blood, then the EDTA Na-added blood was centrifuged and the plasma separated, and the resultant was cryopreserved. At a later date, the cGMP level in the plasma was measured by a RIA method using a kit (YSI-7702, YAMASA CORPORATION). After blood collection, the animal was bled for the euthanasia, and then the left femur was resected. Each maximum diameter of the sagittal plane and the coronal plane in the callus was measured, and the average value was used as a callus diameter. In accordance with the method of Example 3, the type X collagen gene expression level in the callus was measured. The measurement was performed for 12 cases in each group.
substance,measurement,setting,value
"CNP derivative A: CNP (1-22) Ghrelin (12-28, E17D): SEQ ID NO: 13; SEQ ID NO: 157 of US 2010-305031 (GLSKGCFGLKLDRIGSMSGLGCVQQRKDSKKPPAKLQPR; Chimeric CNP J (SEQ ID NO157) of US2010-305031 and WO2009/142307, and CNP derivative A of current invention.)",Gene expression of type X collagen in fractured left femur,"Example 3: 0.5 mg/kg/day continuous s.c. (osmotic pump) for one week, normalized to ubiquitin C",significantly suppressed
same,Gene expression level of type X collagen in the callus,"Example 4: 0.5 mg/kg/day continuous s.c. for one week, versus vehicle group, FIG. 5C",suppressed
